Reference: US6326363A, “Methylenebisphosphonic acid derivatives” (Leiras Oy, priority 1997, dated 2001)
Counter-ions that a name gives are not always drawn. Like-named read-outs stand apart in the source and are kept apart here.

Key:
[1] = Water-solubility in phosphate buffer (50 mM, pH 7.4), HPLC; type: physicochemical; conditions: for solubility at 2 h: 50 mm phosphate buffer, aqueous buffer
Description: Clodronate and the prodrug molecules of clodronate were analysed with reverse phase/ion pair HPLC method (an isocratic program for clodronate; a gradient program for the simultaneous analysis of clodronate and a prodrug molecule), where detection of compounds was based on the measurement of light scattering caused by unevaporated compounds.
Equipment: Merck LaChrom HPLC (Merck Hitachi Ltd., Japan) Kromasil 100 RP-C8 (250×4.6 i.d., 5 μm) (Higgins Analytical Inc., USA)
Isocratic programe: methanol/ammoniumacetate buffer (3:97, pH 4.6), which contained 2.25% butylamine as ion pair reagent, flow 1.2 ml/min.
Gradient program: methanol (3%→40-60% during 1 min-6 min)/ammoniumacetate (pH 4.6), which contained 2.25% butylamine as ion pair reagent, flow 1.2 ml/min.
Detector: Sedex 55 light scattering detector (Sedere, France)
Settings: temperature of detector 70° C., pressure of evaporating gas (filtered air) 2.2 bar.
Water-solubilities of prodrug molecules were determined in phosphate buffer (50 mM, pH 7.4) at room temperature.
An excess of the compound to be tested was dissolved in about 5 ml of phosphate buffer. The suspension was stirred for 2 hours, the suspension was filtered, and the prodrug concentration of the filtrate was determined with HPLC. Water-solubility of clodronate was determined with the same method.

[2] = Enzymatic hydrolysis of prodrug molecules in 80% plasma at pH 7.40 and 37° C.; type: in vitro ADME; conditions: pH 7.4, 37° C.; for metabolised at 1 min: 1 minute, mean ± SE, n = 3, read-out: clodronate released in the first sample (1 minute)
Description: The enzyme hydrolysis rate of prodrug molecules was determined in a plasma/buffer mixture (80%-20%) at pH 7.40 and at 37° C.
The compound to be tested was dissolved in the buffer part and, after dissolution, plasma with a temperature of 37° C. was added. The solution was stirred with a magnetic stirrer and a sample of 0.25 ml was taken from the mixture at intervals of 1-360 min (depending on the molecule to be tested), to which sample 0.25 ml methanol (denatures proteins) was added. The sample was centrifuged, the clear supernatant was evaporated to dryness, the residue was dissolved in the eluent of the HPLC method, and the remaining prodrug concentration and the amount of the clodronate formed were analysed with HPLC. From the concentrations obtained a first-order graph was drawn (the remaining prodrug amount as a function of time), wherefrom a dissociation constant and half-life (T1/2) were determined.

[3] = Chemical hydrolysis of prodrug molecules in phosphate buffer at 37° C.; type: physicochemical; conditions: phosphate buffer 50 mM; for half-life: 50 mm phosphate buffer
Description: Chemical hydrolysis of prodrug molecules was analysed in phosphate buffer (50 mM, μ=0.15) at pH 2.0 and 7.4 and at 37° C.
The compound to be studied was dissolved in 10.0 ml of phosphate buffer. The solution was stirred for 24-1000 h in a water bath with a magnetic stirrer, and samples were taken at regular intervals and analysed with HPLC. From the results a graph of pseudo I order was drawn, where the amount of the remaining compound was shown as a function of time. From the slope (kk) of the linear graph so obtained, a dissociation constant k (k=2.303×-kk) was calculated, wherefrom the half-life T1/2 (T1/2 =0.693/k) of the prodrug molecule under the circumstances in question was calculated.

[4] = Distribution coefficient octanol/buffer (log P); type: physicochemical; conditions: 1-octanol/buffer
Description: The fat-solubility of the compounds of the test was studied by determining the distribution coefficients (P) of the compounds at pH 7.4 and 2.0. The analysis were carried out in a mixture of octanol and buffer.
When the octanol/buffer method of analysis was used, 1-octanol and the phosphate buffer used (50 mM, pH 7.40, μ=0.15) were saturated with each other by stirring a mixture of these overnight. Phases were separated and a prodrug standard solution with the desired concentration was made in the buffer phase. Appropriate volumes of 1-octanol and the standard solution of phosphate buffer were mixed and the mixture was shaken vigorously for 60 min. After shaking the phases were separated and the concentration of the compound to be studied was analysed from the buffer phase before and after distribution according to the above described HPLC method. Distribution coefficient P was calculated from the following formula: [formula]
C1 =concentration of the compound to be studied before distribution
Ca =concentration of the compound to be studied after distribution
Va =volume of the buffer phase
Vo =volume of the octanol phase

[5] = test system: PTH-induced bone resorption in mouse calvaria; assay: Inhibition of PTH-induced bone resorption in mouse calvaria in vitro; type: cell-based; conditions: 72 h, 100 μmol/l, PTH 10 nM, cultured for three days, read-out: Inhibition of resorption 100 (PTH-x)/PTH
Description: Newborn mice were labeled by a subcutaneous injection of ^45 Ca four days prior to sacrifice. Calvarial bone fragments were microdissected from the parietal bones, preincubated in culture medium with indomethacin, washed and then cultured for three days with and without a bisphosphonate prodrug. Bone resorption was stimulated by parathyroid hormone (PTH, 10 nM), and the effect on this stimulated resorption was measured. As presented in Table 4, an inhibition of resorption by the compounds was shown. The inhibition by the bisphosphonate prodrugs was even higher than with the parent drug.

[6] = Absorption and hydrolysis in vivo, oral bioavailability in fasted rats; conditions: rat, 100 umol/kg, urine 72 hours, compared with intravenous, parent drug analyzed
Description: Absorption and hydrolysis of the compounds in vivo was studied in fasted rats. Absorption was determined from the total amount excreted into urine during 72 hours after administration. For the determination of oral bioavailability excreted amount after oral administration was compared with that after intravenous administration. The urine samples were analyzed for the parent drug with mass-selective or nitrogen phosphorous-detection gas chromatography. The results presented in Table 5 show increased bioavailability of the bisphosphonate prodrugs compared with that of the parent compound.

[7] = phosphate buffer 50 mM, pH 7.4, room temperature
[8] = μ=0.15, pH 2.0, 37° C., read-out: T1/2 pH 2.0 (converted)
[9] = μ=0.15, pH 7.4, 37° C., read-out: T1/2 pH 7.4 (converted)
[10] = pH 2.0, read-out: Log P (pH 2.0)
[11] = 1-octanol/phosphate buffer, pH 7.4, read-out: Log P (pH 7.4)

Structure (SMILES)	solubility at 2 h [1, 7]	metabolised at 1 min [2]	half-life [3, 8]	logD [4, 10]	logD [4, 11]	inhibition at 100 µM [5]	other results
O=C(OP(=O)(O)C(Cl)(Cl)P(=O)(O)OC(=O)c1ccccc1)c1ccccc1 [Benzoe acid dianhydride (Ex. 7), P,P'-Di(benzoyl)(dichloromethylene)bisphosphonate disodium salt]	6 mg/mL	91.4 ± 8.6%	286 h	-1.5	-2.4		half-life [3, 9]: 235 h
CCCC(=O)OP(=O)(O)C(Cl)(Cl)P(=O)(O)OC(=O)CCC [Butanoic acid dianhydride (Ex. 7), P,P'-Dibutyroyl(dichloromethylene)bisphosphonate disodium salt]	172 mg/mL	98 ± 6.9%	0.8 h	-1.9	-2.4		T1/2 pH 7.4 ([3]; μ=0.15, pH 7.4, 37° C.): 31.3 h
O=P([O-])([O-])C(Cl)(Cl)P(=O)(O)O.[Na+].[Na+] [Clodronate, dichloromethylenebisphosphonic acid disodium salt, reference compound]	397 mg/mL					43.2%	Water-solubility (in words) ([1]; reason why the distribution coefficient cannot be determined): extremely water-soluble; bioavailability at 72 h [6]: 2.17%
CC(=O)OP(=O)(O)C(Cl)(Cl)P(=O)(O)OC(C)=O [Compound 1, P,P'-Diacetyl(dichloromethylene)bisphosphonate disodium salt]	190 mg/mL	102 ± 1.2%	0.7 h	-1.4	-2.2	48.7%	T1/2 pH 7.4 ([3]; μ=0.15, pH 7.4, 37° C.): 15.2 h
CC(C)C(=O)OP(=O)(O)C(Cl)(Cl)P(=O)(O)OC(=O)C(C)C [Compound 2, P,P-di(isobutyroyl)(dichloromethylene)bisphosphonate disodium salt]						64.8%	
CCCCCCCCCCCCCC(=O)OP(=O)(O)C(Cl)(Cl)P(=O)(O)OC(=O)CCCCCCCCCCCCC [Compound 3, P,P'-di(tetradecanoyl)(dichoromethylene)bisphosphonate disodium salt]						50.5%	
CCCCCCCCCCCCCCCCCC(=O)OP(=O)(O)C(Cl)(Cl)P(=O)(O)OC(=O)CCCCCCCCCCCCCCCCC [Compound 4, P,P'-di(octadecanoyl)(dichloromethylene)bisphosphonate disodium salt]						53.9%	
CC(C)(C)C(=O)OP(=O)(O)C(Cl)(Cl)P(=O)(O)OC(=O)C(C)(C)C [Pivalyl acid dianhydride (Ex. 7), P,P'-Di(pivaloyl)(dichloromethylene)bisphosphonate disodium salt]				-2	-2.3		Water-solubility ([1]; phosphate buffer 50 mM, pH 7.4, room temperature, 120 min): 23,5 mg/ml; T1/2 Plasma [2]: 3.3 ± 0.6 h; half-life [3, 9]: 790 h; T1/2 pH 2.0 ([3]; μ=0.15, pH 2.0, 37° C.): 8.6 h
